From PubChem BioAssay AID2060626 (Molecular Pharmacology Branch, DTP, NCI, 2025) come the findings set out here.

Each structure is given as a SMILES string. pIC50: −log10 of the molar value. Where “and” joins values, the source holds several entries; their conditions need not be identical. Equal entries are not always repeated.

In this experiment the test system is 168753-222-R-J1-PDC complex spheroid viability. Description: Anticancer human tumor 168753-222-R-J1-PDC patient-derived bladder carcinoma cell line growth inhibition [CLK]. Conditions: for viability, T/C: stronger effect = lower value. In outline: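 Patient-derived tumor cells grown as complex spheroids with HUVEC endothelial cells and mesenchymal stem cells, treated with drug combinations. Concentrations descend in half-log steps from near clinical Cmax, or from 10 microM if Cmax unknown.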
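Further: viability measured after seven days of drug exposure.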
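Wherever viability, T/C is given: luminescence signal used as surrogate for viable cell amount; 100% = DMSO vehicle control wells.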

For `CC1COCCN1c1cc(C2(S(C)(=N)=O)CC2)nc(-c2ccnc3[nH]ccc23)n1` (stereo not given) + CNC(=O)c1ccc(Nc2nc(OC3CCCC3)c3c(-c4ccc5nc(C)oc5c4)c[nH]c3n2)c(OC)c1, the pIC50 (in general, the negative decadic logarithm of the IC50, by convention in mol/L) (curve of first compound, second compound 0.0316 µM) was below 5.00; the pIC50 (curve of first compound, second compound 0.1 µM) is 5.08; the pIC50 (curve of first compound, second compound 0.316 µM) was 5.53; the pIC50 (curve of first compound, second compound 1 µM) is above 7.50; the pIC50 (curve of first compound, second compound 3.16 µM) was above 7.50; the pIC50 (curve of first compound, second compound 10 µM) is above 7.50. Further, the viability, T/C (as a rule, the ratio of treated to control) reads like this: (second compound 0.0316 µM, first compound 0.0316 µM) 111%; (second compound 0.0316 µM, first compound 0.1 µM) 110%; (second compound 0.0316 µM, first compound 0.316 µM) 102%; (second compound 0.0316 µM, first compound 1 µM) 103%; (second compound 0.0316 µM, first compound 3.16 µM) 90.8%; (second compound 0.0316 µM, first compound 10 µM) 52.4%. The viability, T/C runs as follows: (second compound 0.1 µM, first compound 0.0316 µM) 101%; (second compound 0.1 µM, first compound 0.1 µM) 102%; (second compound 0.1 µM, first compound 0.316 µM) 104%; (second compound 0.1 µM, first compound 1 µM) 108%; (second compound 0.1 µM, first compound 3.16 µM) 73.8%; (second compound 0.1 µM, first compound 10 µM) 45.3%. The viability, T/C runs as follows: (second compound 0.316 µM, first compound 0.0316 µM) 79.8%; (second compound 0.316 µM, first compound 0.1 µM) 72.2%; (second compound 0.316 µM, first compound 0.316 µM) 74.5%; (second compound 0.316 µM, first compound 1 µM) 58.2%; (second compound 0.316 µM, first compound 3.16 µM) 51.3%; (second compound 0.316 µM, first compound 10 µM) 30.9%. For the same compound, the viability, T/C is, setting by setting: (second compound 1 µM, first compound 0.0316 µM) 47.8%; (second compound 1 µM, first compound 0.1 µM) 44.8%; (second compound 1 µM, first compound 0.316 µM) 38.5%; (second compound 1 µM, first compound 1 µM) 37.3%; (second compound 1 µM, first compound 3.16 µM) 24.8%; (second compound 1 µM, first compound 10 µM) 18.1%. In addition, the viability, T/C (second compound 3.16 µM, first compound 0.0316 µM) was 31.5%; the viability, T/C (second compound 3.16 µM, first compound 0.1 µM) was 20.9%; the viability, T/C (second compound 3.16 µM, first compound 0.316 µM) is 19.4%; the viability, T/C (second compound 3.16 µM, first compound 1 µM) is 18.8%; the viability, T/C (second compound 3.16 µM, first compound 3.16 µM) is 17.2%; the viability, T/C (second compound 3.16 µM, first compound 10 µM) is 14.2%. The viability, T/C by setting is: (second compound 10 µM, first compound 0.0316 µM) 19.6%; (second compound 10 µM, first compound 0.1 µM) 23%; (second compound 10 µM, first compound 0.316 µM) 20.6%; (second compound 10 µM, first compound 1 µM) 16.1%; (second compound 10 µM, first compound 3.16 µM) 15.3%; (second compound 10 µM, first compound 10 µM) 9.89%.

As to `CCCS(=O)(=O)Nc1ccc(F)c(C(=O)c2c[nH]c3ncc(-c4ccc(Cl)cc4)cc23)c1F`, the viability, T/C is 91.7% and 104% (compound 0.0316 µM); 108% and 107% (compound 0.1 µM); 103% and 113% (compound 0.316 µM); 132% and 115% (compound 1 µM); 120% and 118% (compound 3.16 µM); 71.7% and 76.3% (compound 10 µM). Further, the pIC50 (curve of compound) was below 5.00.

For `CNC(=O)c1ccc(Nc2nc(OC3CCCC3)c3c(-c4ccc5nc(C)oc5c4)c[nH]c3n2)c(OC)c1`, the viability, T/C was 101% [middle of 12 runs] (compound 0.0316 µM); 99.3% [middle of 12 runs] (compound 0.1 µM); 45.1% [middle of 12 runs] (compound 1 µM); 33.5% [middle of 12 runs] (compound 3.16 µM); 23.6% [middle of 12 runs] (compound 10 µM). In addition, for the setting “compound alone, run of 08/01/2023”, the IC50 (as a rule, the concentration at which inhibition is half-maximal) was 900 nM [middle of 12 runs].
